This note sets out measurements from patent US20050197371A1, “Urea derivatives as PDGFR modulators” (Ambit Biosciences Corporation, priority 2003, published 2005).

The assay concerns the target T1, PDGFRB(DKIN) (PDGFR-β) (Homo sapiens, UniProt P09619).
T1 construct: PDGFRB(DKIN)
The assay can be described thus: Phage-display competitive binding assay, PDGFRB(DKIN). The conditions noted are these: T7 phage displaying human PDGFR-β, DKIN construct; read-out: Binding Assay: PDGFRB(DKIN). The method, then: The term “ND” represents non-determined values.
Briefly, T7 phage displaying human PDGFR-β were incubated with an affinity matrix coated with known PDGFR-β inhibitor in the presence of various concentrations of the soluble competitor molecules.
On to `CSc1ncc(Br)c(C(=O)Nc2ccc(NC(=O)Nc3cc(C(C)(C)C)on3)cc2)n1` [Compound N114], for which the Kd is less than 100 nM.
Then `CC(C)(C)c1cc(NC(=O)Nc2ccc(NC(=O)c3cccc4cccnc34)cc2)no1` [Compound N115], with less than 100 nM.
Turning to `Cc1nn(C)c(Cl)c1C(=O)Nc1ccc(NC(=O)Nc2cc(C(C)(C)C)on2)cc1` [Compound N116], the Kd is less than 100 nM.
As to `CC(C)(C)c1cc(NC(=O)Nc2ccc(NC(=O)c3nccc4ccccc34)cc2)no1` [Compound N117], the Kd is less than 100 nM.
As for `COc1ccc(-c2cc(C(=O)Nc3ccc(NC(=O)Nc4cc(C(C)(C)C)on4)cc3)c(C)o2)cc1` [Compound N118], the Kd was 1000 to 10000 nM.
As to `Cn1cc(C(=O)Nc2ccc(NC(=O)Nc3cc(C(C)(C)C)on3)cc2)c2ccccc21` [Compound N119], the Kd is less than 100 nM.
With `Cc1ccc(-c2cc(C(=O)Nc3ccc(NC(=O)Nc4cc(C(C)(C)C)on4)cc3)c(C)o2)cc1` [Compound N120], the Kd was in the range of 1000 to 10000 nM.
Next, `Cc1cccc(C(=O)Nc2ccc(NC(=O)Nc3cc(C(C)(C)C)on3)cc2)n1` [Compound N121]: less than 100 nM; `CC(C)(C)c1cc(NC(=O)Nc2ccc(NC(=O)c3ccc4sccc4c3)cc2)no1` [Compound N122]: less than 100 nM; `CC(C)(C)c1cc(NC(=O)Nc2ccc(NC(=O)c3cnc(Cl)c(Cl)c3)cc2)no1` [Compound N123]: 1000 to 10000 nM.
Consider `CC(C)(C)c1cc(NC(=O)Nc2ccc(NC(=O)c3coc(-c4ccc(Cl)cc4)n3)cc2)no1` [Compound N124], for which the Kd was 100 to 1000 nM.
Next, `CC(C)(C)c1cc(NC(=O)Nc2ccc(NC(=O)c3ccc(Cl)nc3)cc2)no1` [Compound N125]: 100 to 1000 nM.
With `CC(C)(C)c1cc(NC(=O)Nc2ccc(NC(=O)c3cc4cc(Br)ccc4s3)cc2)no1` [Compound N126], the Kd is 100 to 1000 nM.
Then `Cc1ccc2[nH]c(C(=O)Nc3ccc(NC(=O)Nc4cc(C(C)(C)C)on4)cc3)cc2c1` [Compound N127], with less than 100 nM; and `COc1cc(OC)nc(C2CCCCC2C(=O)Nc2ccc(NC(=O)Nc3cc(C(C)(C)C)on3)cc2)n1` (stereo not drawn) [Compound N129], with 100 to 1000 nM; and `CC(C)(C)c1cc(NC(=O)Nc2ccc(NC(=O)c3ccc(Cl)nc3Cl)cc2)no1` [Compound N130], with 100 to 1000 nM.
Consider `Cc1ccc2sc(C(=O)Nc3ccc(NC(=O)Nc4cc(C(C)(C)C)on4)cc3)cc2c1` [Compound N133], for which the Kd was less than 100 nM.
For the molecule `CC(C)(C)c1cc(NC(=O)Nc2ccc(NC(=O)c3cnc4cc(C(F)(F)F)ccc4c3O)cc2)no1` [Compound N146], the Kd was in the range of 1000 to 10000 nM.
Then `CC(C)(C)c1cc(NC(=O)Nc2ccc(NC(=O)c3cnnc4ccccc34)cc2)no1` [Compound N147], with less than 100 nM; and `CC(C)(C)c1cc(NC(=O)Nc2ccc(NC(=O)c3c4ccccc4nc4ccccc34)cc2)no1` [Compound N148], with 1000 to 10000 nM.
On to `CC(C)(C)c1cc(NC(=O)Nc2ccc(NC(=O)c3cnc4ccccc4n3)cc2)no1` [Compound N149], for which the Kd lay in the range of 1000 to 10000 nM.
Consider `CC(C)(C)c1cc(NC(=O)Nc2ccc(NC(=O)c3ccc4ncccc4c3)cc2)no1` [Compound N151], for which the Kd was less than 100 nM.
On to `CC(C)(C)c1cc(NC(=O)Nc2ccc(C(=O)Nc3ccc(F)cc3F)cc2)no1` [Compound N153], for which the Kd lay in the range of 100 to 1000 nM.
Then `CC(C)(C)c1cc(NC(=O)Nc2ccc(C(=O)Nc3nccnc3N)cc2)no1` [Compound N157], with less than 100 nM; and `CN(C)c1ccc(C(=O)Nc2ccc(NC(=O)Nc3cc(C(C)(C)C)on3)cc2)cn1` [Compound N159], with less than 100 nM; and `Cc1cnc(C(=O)Nc2ccc(NC(=O)Nc3cc(C(C)(C)C)on3)cc2)c(C(=O)O)n1` [Compound N160], with less than 100 nM.
Then `CC(C)(C)c1cc(NC(=O)Nc2ccc(NC(=O)c3cc4ccccc4[nH]3)cc2)no1` [Compound N161], with less than 100 nM; and `COc1cc(C(=O)Nc2ccc(NC(=O)Nc3cc(C(C)(C)C)on3)cc2)nc(OC)n1` [Compound N162], with less than 100 nM.
Then `CCOC(=O)c1cccc(C(=O)Nc2ccc(NC(=O)Nc3cc(C(C)(C)C)on3)cc2)n1` [Compound N164], with less than 100 nM.
In the case of `CC(C)(C)c1cc(NC(=O)Nc2ccc(NC(=O)c3cccnc3C(=O)O)cc2)no1` [Compound N165], the Kd lay in the range of 100 to 1000 nM.
Next, `CC(C)(C)c1cc(NC(=O)Nc2ccc(NC(=O)c3ccc(Oc4ccnc(C(=O)O)c4)cc3)cc2)no1` [Compound N166]: less than 100 nM; `CC(C)(C)c1cc(NC(=O)Nc2ccc(NC(=O)c3ccncc3)cc2)no1` [Compound N167]: less than 100 nM; `Cc1cc(NC(=O)c2cn3nc(Cl)ccc3n2)ccc1NC(=O)Nc1cc(C(C)(C)C)on1` [Compound N169]: 100 to 1000 nM.
As to `Cc1cc(NC(=O)[C@](C)(O)CSc2ccc(F)cc2)ccc1NC(=O)Nc1cc(C(C)(C)C)on1` [Compound N170], the Kd was 100 to 1000 nM.
For the molecule `COc1cc(NC(=O)c2cn3nc(Cl)ccc3n2)ccc1NC(=O)Nc1cc(C(C)(C)C)on1` [Compound N171], the Kd was in the range of 100 to 1000 nM.
Then `COc1cc(NC(=O)CCC(=O)N2CCNC(=O)CC2)ccc1NC(=O)Nc1cc(C(C)(C)C)on1` [Compound N172], with 1000 to 10000 nM.
As to `Cc1nc(-c2ccc(C(=O)Nc3ccc(NC(=O)Nc4cc(C(C)(C)C)on4)cc3)s2)cs1` [Compound N173], the Kd was less than 100 nM.
Then `CC(C)(C)c1cc(NC(=O)Nc2ccc(NC(=O)c3cc(Cl)nnc3Cl)cc2)no1` [Compound N174], with 100 to 1000 nM; and `CC(C)(C)c1cc(NC(=O)Nc2ccc(NC(=O)c3cc(O)c4cccc(O)c4n3)cc2)no1` [Compound N176], with 1000 to 10000 nM.
In the case of `COc1ccc(C(=O)c2c[nH]c(C(=O)Nc3ccc(NC(=O)Nc4cc(C(C)(C)C)on4)cc3)c2)cc1` [Compound N177], the Kd lay in the range of 1000 to 10000 nM.
Then `Cc1ccc(-c2nc(C(=O)Nc3ccc(NC(=O)Nc4cc(C(C)(C)C)on4)cc3)cs2)cc1` [Compound N178], with less than 100 nM.
On to `CC(C)(C)c1cc(NC(=O)Nc2ccc(NC(=O)c3nnsc3Sc3ccc(C(F)(F)F)cc3)cc2)no1` [Compound N179], for which the Kd was in the range of 100 to 1000 nM.
As to `CC(C)(C)c1cc(NC(=O)Nc2ccc(NC(=O)c3csc(Cc4cccc(C(F)(F)F)c4)n3)cc2)no1` [Compound N180], the Kd is 100 to 1000 nM.
For `Cc1nc(-c2ccccc2)sc1C(=O)Nc1ccc(NC(=O)Nc2cc(C(C)(C)C)on2)cc1` [Compound N181], the Kd was 100 to 1000 nM.
Regarding `CC(C)c1nnsc1C(=O)Nc1ccc(NC(=O)Nc2cc(C(C)(C)C)on2)cc1` [Compound N182], the Kd is 1000 to 10000 nM.
As to `Cc1nc(-c2ccc(Cl)cc2)sc1C(=O)Nc1ccc(NC(=O)Nc2cc(C(C)(C)C)on2)cc1` [Compound N184], the Kd was 100 to 1000 nM.
Next, `COc1cc2nc(Cl)nc(Nc3ccc(NC(=O)Nc4cc(C(C)(C)C)on4)cc3)c2cc1OC` [Compound O1, 1-(4-(2-chloro-6,7-dimethoxyquinazolin-4-ylamino)phenyl)-3-(5-tert-butylisoxazol-3-yl)urea]: 100 to 1000 nM; `Cc1cnc(C(=O)Nc2ccc(NC(=O)Nc3cc(C(C)(C)C)on3)cc2)cn1` [Compound O2]: less than 100 nM; `CC(C)(C)c1cc(NC(=O)Nc2ccc(Nc3ncnc4[nH]cnc34)cc2)no1` [Compound O3]: less than 100 nM.
As to `CC(C)(C)c1cc(NC(=O)Nc2ccc(Nc3nc(Cl)nc4[nH]cnc34)cc2)no1` [Compound O4], the Kd was less than 100 nM.
Next, `COc1cc2ncnc(Nc3ccc(NC(=O)Nc4cc(C(C)(C)C)on4)cc3)c2cc1OC` [Compound O5]: less than 100 nM; `CC(C)(C)c1cc(NC(=O)Nc2ccc(Nc3nc(N)nc4[nH]cnc34)cc2)no1` [Compound O6]: less than 100 nM; `CC(C)(C)c1cc(NC(=O)Nc2ccc(Nc3ccnc(N)n3)cc2)no1` [Compound O7]: 100 to 1000 nM.
Turning to `COC(=O)c1cccc(Sc2ncc(NC(=O)Nc3cc(C(C)(C)C)on3)s2)c1` [Compound O8], the Kd fell in the range of 100 to 1000 nM.
Then `Cc1ccc(CNc2ccc(NC(=O)Nc3cc(C(C)(C)C)on3)cc2)cc1` [Compound O9], with 100 to 1000 nM; and `Cc1nc(N)cc(Nc2ccc(NC(=O)Nc3cc(C(C)(C)C)on3)cc2)n1` [Compound O10], with 100 to 1000 nM; and `COc1ccc(-c2noc(-c3ccc(NC(=O)Nc4cc(C(C)(C)C)on4)cc3)n2)c2ccccc12` [Compound P3], with 1000 to 10000 nM.
`Cc1ccccc1-c1noc(-c2ccc(NC(=O)Nc3cc(C(C)(C)C)on3)cc2)n1` [Compound P4]: the Kd was less than 100 nM.
Then `CC(C)(C)c1cc(NC(=O)Nc2ccc(-c3nc(-c4cccc5ccccc45)no3)cc2)no1` [Compound P5], with 100 to 1000 nM; and `CC(C)(C)c1cc(NC(=O)Nc2ccc(-c3nc(-c4ccc(Cl)cc4)no3)cc2)no1` [Compound P7], with 100 to 1000 nM.
Take `CC(C)(C)c1cc(NC(=O)Nc2ccc(-c3nc(-c4ccc(C(F)(F)F)cc4)no3)cc2)no1` [Compound P8]: the Kd is more than 10000 nM.
Turning to `Cc1noc(-c2ccc(NC(=O)Nc3cc(C(C)(C)C)on3)cc2)n1` [Compound P9], the Kd is less than 100 nM.
Then `CC(C)(C)c1cc(NC(=O)Nc2ccc(NS(=O)(=O)c3ccccc3)cc2)no1` [Compound V1], with 1000 to 10000 nM; and `Cc1ccc(S(=O)(=O)Nc2ccc(NC(=O)Nc3cc(C(C)(C)C)on3)cc2)cc1` [Compound V2], with 1000 to 10000 nM; and `CC(C)(C)c1cc(NC(=O)Nc2ccc(S(=O)(=O)Nc3ncccn3)cc2)no1` [Compound V3], with more than 10000 nM.
With `CC(=O)NS(=O)(=O)c1ccc(NC(=O)Nc2cc(C(C)(C)C)on2)cc1` [Compound V4], the Kd is more than 10000 nM.
Next, `Cc1ccc(NC(=O)Nc2cc(C(F)(F)F)cc(Cl)n2)cc1` [Compound W1]: 100 to 1000 nM; `O=C(Nc1ccc(Cl)cc1)Nc1ccno1` [Compound Z15]: 1000 to 10000 nM.
Then `CC(C)CCOC(=O)c1nnsc1NC(=O)Nc1ccc(Br)cc1` [Compound Z36], with more than 10000 nM.
